Measurements published in US20240116985A1, “STAPLED PEPTIDES AND METHODS THEREOF” (priority 2020, published 2024).

Target: T1, full-length beta-Catenin (Uniprot ID P35222) (Homo sapiens, UniProt P35222)
T1 construct: 10 nM full-length beta-Catenin (Uniprot ID P35222)
T1 sequence (P35222 1-781): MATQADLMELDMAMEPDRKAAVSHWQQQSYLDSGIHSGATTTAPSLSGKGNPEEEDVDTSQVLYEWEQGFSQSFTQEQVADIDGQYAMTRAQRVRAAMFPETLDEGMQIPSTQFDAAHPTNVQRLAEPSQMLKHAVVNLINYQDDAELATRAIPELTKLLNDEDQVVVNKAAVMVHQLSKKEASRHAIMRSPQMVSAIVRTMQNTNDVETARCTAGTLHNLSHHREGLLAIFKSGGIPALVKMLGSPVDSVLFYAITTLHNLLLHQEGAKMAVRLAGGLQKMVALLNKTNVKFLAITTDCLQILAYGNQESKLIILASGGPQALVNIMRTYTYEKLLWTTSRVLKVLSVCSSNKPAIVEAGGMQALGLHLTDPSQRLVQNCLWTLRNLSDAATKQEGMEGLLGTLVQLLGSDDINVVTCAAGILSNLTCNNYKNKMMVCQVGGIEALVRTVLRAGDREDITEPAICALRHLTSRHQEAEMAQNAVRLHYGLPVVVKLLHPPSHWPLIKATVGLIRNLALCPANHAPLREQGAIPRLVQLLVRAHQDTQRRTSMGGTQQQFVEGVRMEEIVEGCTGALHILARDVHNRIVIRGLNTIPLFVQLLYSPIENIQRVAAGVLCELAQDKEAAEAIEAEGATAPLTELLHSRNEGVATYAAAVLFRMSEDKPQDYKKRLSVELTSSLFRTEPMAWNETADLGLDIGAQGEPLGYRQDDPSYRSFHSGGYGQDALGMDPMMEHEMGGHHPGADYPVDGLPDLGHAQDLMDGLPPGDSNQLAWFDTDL
Experiment: Fluorescence polarization IC50 (beta-catenin / 5FAM-TCF4 10-53 competition)
Type: binding
Details: fluorescence polarization; read-out: beta-Catenin FP IC50

IC50 [µM] | Compound
0.249 | CC(=O)N1CCC[C@]12CC=CCCCC1(CCCC=CCCCOC(=O)N3CC[C@@](C(=O)N[C@@H](Cc4ccsc4)C(=O)N[C@@H](Cc4csc5ccccc45)C(=O)N[C@@H](CCC(N)=O)C(N)=O)(C3)NC(=O)[C@H](CC(N)=O)NC(=O)[C@H](Cc3ccccc3)NC(=O)[C@H](C)NC(=O)[C@H](C)NC(=O)[C@H]([C@@H](C)O)NC(=O)[C@H](CC(N)=O)NC1=O)NC(=O)[C@H](CC1CCCCC1)NC(=O)[C@H](CC(=O)O)NC2=O (stereo partly drawn) [I-1884, Ac-PL3-Asp-Cha-B5-Asn-Thr-Ala-Ala-Phe-Asn-PyrS2-3Thi-BztA-Gln-NH2]
0.255 | CC(=O)N1CCC[C@]12CC=CCCCC1(CCCC=CCCCOC(=O)N3CC[C@@](C(=O)N[C@@H](Cc4ccsc4)C(=O)N[C@@H](Cc4csc5ccccc45)C(=O)N[C@@H](CCC(N)=O)C(N)=O)(C3)NC(=O)[C@H](CC(N)=O)NC(=O)[C@H](Cc3ccccc3)NC(=O)[C@H](C)NC(=O)[C@H](C)NC(=O)[C@H]([C@@H](C)O)NC(=O)[C@H](CC(N)=O)NC1=O)NC(=O)[C@H](CC1CCCCC1)NC(=O)[C@H](CC(=O)O)NC2=O (stereo partly drawn) [I-1885, Ac-PL3-Asp-Cha-B5-Asn-Thr-Ala-Ala-Phe-Asn-PyrS2-3Thi-BztA-Gln-NH2]
1.42 | CC(=O)N1CCC[C@]12CC=CCCCC1(CCCC=CCCCOC(=O)N3CC[C@@](C(=O)N[C@@H](Cc4ccsc4)C(=O)N[C@@H](Cc4csc5ccccc45)C(=O)N[C@@H](CCC(N)=O)C(N)=O)(C3)NC(=O)[C@H](CC(N)=O)NC(=O)[C@H](Cc3ccccc3)NC(=O)[C@H](C)NC(=O)[C@H](C)NC(=O)[C@H](CCCNC(=N)N)NC(=O)[C@H](CC(N)=O)NC1=O)NC(=O)[C@H](CC(C)(C)C)NC(=O)[C@H](CC(=O)O)NC2=O (stereo partly drawn) [I-1892, Ac-PL3-Asp-Npg-B5-Asn-Arg-Ala-Ala-Phe-Asn-PyrS2-3Thi-BztA-Gln-NH2]
0.075 | CC(=O)N1CCC[C@]12CC=CCCCC1(CCCC=CCCCOC(=O)N3CC[C@@](C(=O)N[C@@H](CC4CCCC4)C(=O)N[C@@H](Cc4csc5ccccc45)C(=O)N[C@@H](CO)C(N)=O)(C3)NC(=O)[C@H](CC(C)C)NC(=O)[C@H](Cc3ccccc3)NC(=O)[C@H](C)NC(=O)[C@H](C)NC(=O)[C@H](Cc3cccc(C(=O)O)c3)NC(=O)[C@H](CC(=O)O)NC1=O)NC(=O)[C@H](CC(C)(C)C)NC(=O)[C@H](CC(=O)O)NC2=O (stereo partly drawn) [I-1896, Ac-PL3-Asp-Npg-B5-Asp-3COOHF-Ala-Ala-Phe-Leu-PyrS2-CypA-BztA-Ser-NH2]
0.023 | CC(=O)N1CCC[C@]12CC=CCCCC1(CCCC=CCCCOC(=O)N3CC[C@@](C(=O)N[C@@H](Cc4ccccc4Cl)C(=O)N[C@@H](Cc4csc5ccccc45)C(=O)N[C@@H](CO)C(=O)N[C@@H](C)CO)(C3)NC(=O)[C@H](CC(C)C)NC(=O)[C@H](Cc3ccccc3)NC(=O)[C@H](C)NC(=O)[C@H](C)NC(=O)[C@H](Cc3cccc(C(=O)O)c3)NC(=O)[C@H](CC(=O)O)NC1=O)NC(=O)[C@H](CC(C)(C)C)NC(=O)[C@H](CC(=O)O)NC2=O (stereo partly drawn) [I-1907, Ac-PL3-Asp-Npg-B5-Asp-3COOHF-Ala-Ala-Phe-Leu-PyrS2-2C1F-BztA-Ser-Alao1]
0.017 | CC(=O)N1CCC[C@]12CC=CCCCC1(CCCC=CCCCOC(=O)N3CC[C@@](C(=O)N[C@@H](Cc4ccsc4)C(=O)N[C@@H](Cc4csc5ccccc45)C(=O)N[C@@H](Cc4ccccc4)C(N)=O)(C3)NC(=O)[C@H](CC(C)C)NC(=O)[C@H](Cc3ccccc3)NC(=O)[C@H](C)NC(=O)[C@H](Cc3c[nH]cn3)NC(=O)[C@H](Cc3cccc(C(=O)O)c3)NC(=O)[C@H](CC(=O)O)NC1=O)NC(=O)[C@H](CC(C)(C)C)NC(=O)[C@H](CC(=O)O)NC2=O (stereo partly drawn) [I-1910, Ac-PL3-Asp-Npg-B5-Asp-3COOHF-His-Ala-Phe-Leu-PyrS2-3Thi-BztA-Phe-NH2]
0.022 | CC(=O)N1CCC[C@]12CC=CCCCC1(CCCC=CCCCOC(=O)N3CC[C@@](C(=O)N[C@@H](Cc4ccsc4)C(=O)N[C@@H](Cc4csc5ccccc45)C(=O)N[C@@H](CCC(N)=O)C(N)=O)(C3)NC(=O)[C@H](CC(C)C)NC(=O)[C@H](Cc3ccccc3)NC(=O)[C@H](C)NC(=O)[C@H](C)NC(=O)[C@H](CN3CCC[C@H](C(=O)O)C3)NC(=O)[C@H](CC(=O)O)NC1=O)NC(=O)[C@H](CC(C)(C)C)NC(=O)[C@H](CC(=O)O)NC2=O (stereo partly drawn) [I-1921, Ac-PL3-Asp-Npg-B5-Asp-S3COOPipA-Ala-Ala-Phe-Leu-PyrS2-3Thi-BztA-Gln-NH2]
0.457 | CC(=O)N1CCC[C@]12CC=CCCCC1(CCCC=CCCCOC(=O)N3CC[C@@](C(=O)N[C@@H](Cc4ccccc4)C(=O)N[C@@H](Cc4csc5ccccc45)C(=O)N[C@@H](CCO)C(N)=O)(C3)NC(=O)[C@H](CCO)NC(=O)[C@H](Cc3ccccc3)NC(=O)[C@H](C)NC(=O)[C@H](CCCCNC(C)C)NC(=O)[C@H](CCC(N)=O)NC(=O)[C@H](CC(=O)O)NC1=O)NC(=O)[C@H](CC1CCCCC1)NC(=O)[C@H](CC(N)=O)NC2=O (stereo partly drawn) [I-1922, Ac-PL3-Asn-Cha-B5-Asp-Gln-iPrLys-Ala-Phe-Hse-PyrS2-Phe-BztA-Hse-NH2]
1.61 | CC(=O)N1CCC[C@]12CC=CCCCC1(CCCC=CCCCOC(=O)N3CC[C@@](C(=O)N[C@@H](Cc4ccccc4)C(=O)N[C@@H](Cc4csc5ccccc45)C(=O)N[C@@H](CCO)C(N)=O)(C3)NC(=O)[C@H](CC(N)=O)NC(=O)[C@H](Cc3cccc(Cl)c3)NC(=O)[C@H](C)NC(=O)[C@H](CCCCNC(C)C)NC(=O)[C@H](CCC(N)=O)NC(=O)[C@H](CC(=O)O)NC1=O)NC(=O)[C@H](CC1CCCCC1)NC(=O)[C@H](CC(N)=O)NC2=O (stereo partly drawn) [I-1924, Ac-PL3-Asn-Cha-B5-Asp-Gln-iPrLys-Ala-3C1F-Asn-PyrS2-Phe-BztA-Hse-NH2]
0.475 | CC(=O)N1CCC[C@]12CC=CCCCC1(CCCC=CCCCOC(=O)N3CC[C@@](C(=O)N[C@@H](Cc4ccccc4)C(=O)N[C@@H](Cc4csc5ccccc45)C(=O)N[C@@H](CCO)C(N)=O)(C3)NC(=O)[C@H](CC(N)=O)NC(=O)[C@H](Cc3cccc(C(N)=O)c3)NC(=O)[C@H](C)NC(=O)[C@H](CCCCNC(C)C)NC(=O)[C@H](CCC(N)=O)NC(=O)[C@H](CC(=O)O)NC1=O)NC(=O)[C@H](CC1CCCCC1)NC(=O)[C@H](CC(N)=O)NC2=O (stereo partly drawn) [I-1925, Ac-PL3-Asn-Cha-B5-Asp-Gln-iPrLys-Ala-3cbmf-Asn-PyrS2-Phe-BztA-Hse-NH2]
0.417 | COc1cccc(C[C@@H]2NC(=O)[C@H](C)NC(=O)[C@H](CCCCNC(C)C)NC(=O)[C@H](CCC(N)=O)NC(=O)[C@H](CC(=O)O)NC(=O)C3(CCCC=CCCCOC(=O)N4CC[C@@](C(=O)N[C@@H](Cc5ccccc5)C(=O)N[C@@H](Cc5csc6ccccc56)C(=O)N[C@@H](CCO)C(N)=O)(C4)NC(=O)[C@H](CC(N)=O)NC2=O)CCCC=CC[C@]2(CCCN2C(C)=O)C(=O)N[C@@H](CC(N)=O)C(=O)N[C@@H](CC2CCCCC2)C(=O)N3)c1 (stereo partly drawn) [I-1926, Ac-PL3-Asn-Cha-B5-Asp-Gln-iPrLys-Ala-3OMeF-Asn-PyrS2-Phe-BztA-Hse-NH2]
5.14 | CC(=O)N1CCC[C@]12CC=CCCCC1(CCCC=CCCCOC(=O)N3CC[C@@](C(=O)N[C@@H](Cc4cccnc4)C(=O)N[C@@H](Cc4csc5ccccc45)C(=O)N[C@@H](CCO)C(N)=O)(C3)NC(=O)[C@H](CC(N)=O)NC(=O)[C@H](Cc3ccccc3)NC(=O)[C@H](C)NC(=O)[C@H](CCCCNC(C)C)NC(=O)[C@H](CCC(N)=O)NC(=O)[C@H](CC(=O)O)NC1=O)NC(=O)[C@H](CC1CCCCC1)NC(=O)[C@H](CC(N)=O)NC2=O (stereo partly drawn) [I-1927, Ac-PL3-Asn-Cha-B5-Asp-Gln-iPrLys-Ala-Phe-Asn-PyrS2-3PyrA-BztA-Hse-NH2]
0.887 | CC(=O)N1CCC[C@]12CC=CCCCC1(CCCC=CCCCOC(=O)N3CC[C@@](C(=O)N[C@@H](Cc4cccc(Cl)c4)C(=O)N[C@@H](Cc4csc5ccccc45)C(=O)N[C@@H](CCO)C(N)=O)(C3)NC(=O)[C@H](CC(N)=O)NC(=O)[C@H](Cc3ccccc3)NC(=O)[C@H](C)NC(=O)[C@H](CCCCNC(C)C)NC(=O)[C@H](CCC(N)=O)NC(=O)[C@H](CC(=O)O)NC1=O)NC(=O)[C@H](CC1CCCCC1)NC(=O)[C@H](CC(N)=O)NC2=O (stereo partly drawn) [I-1928, Ac-PL3-Asn-Cha-B5-Asp-Gln-iPrLys-Ala-Phe-Asn-PyrS2-3C1F-BztA-Hse-NH2]
1.56 | COc1cccc(C[C@H](NC(=O)[C@]23CCN(C2)C(=O)OCCCC=CCCCC2(CCCC=CC[C@]4(CCCN4C(C)=O)C(=O)N[C@@H](CC(N)=O)C(=O)N[C@@H](CC4CCCCC4)C(=O)N2)C(=O)N[C@@H](CC(=O)O)C(=O)N[C@@H](CCC(N)=O)C(=O)N[C@@H](CCCCNC(C)C)C(=O)N[C@@H](C)C(=O)N[C@@H](Cc2ccccc2)C(=O)N[C@@H](CC(N)=O)C(=O)N3)C(=O)N[C@@H](Cc2csc3ccccc23)C(=O)N[C@@H](CCO)C(N)=O)c1 (stereo partly drawn) [I-1930, Ac-PL3-Asn-Cha-B5-Asp-Gln-iPrLys-Ala-Phe-Asn-PyrS2-3OMeF-BztA-Hse-NH2]
